The nature of series [1]: Ichthyotoxicity in Carassius auratus. The class given is organism-based. The note with it: in vivo.
Series [2] can be described thus: Activation of voltage-sensitive sodium channel in mouse neuro2a cells. The class given is cell-based. The note with it: N2a.

For orientation: LC50 means the concentration that kills 50% of the test population. A lower LC50 goes with greater toxicity. The term EC50 denotes the concentration that produces a half-maximal response.

The compound `C=C1CC(=O)N[C@@H](C)C(=O)N(C)[C@@H](CCc2ccccc2)C(=O)NCC(=O)O[C@@H](/C(C)=C/C(C)=C/C(C)(C)C)[C@@H]1C` [ANTILLATOXIN B] registered a median lethal concentration (LC50) in series [1] of 1 µM. Further, a half-maximal response in series [2] (EC50) required 1.77 µM.

In series [2], `C=C1CC(=O)N[C@@H](C)C(=O)N(C)[C@@H](C(C)C)C(=O)NCC(=O)O[C@@H](/C(C)=C/C(C)=C/C(C)(C)C)[C@@H]1C` [ANTILLATOXIN] showed an EC50 of 0.18 µM.

Values taken from ChEMBL document CHEMBL1155737, “Antillatoxin B, a neurotoxic lipopeptide from the marine cyanobacterium Lyngbya majuscula” (J Nat Prod, 2001).
